From patent publication US11447534B2, “Peptide complex with immunodulatory and anti-inflammatory function” (NATIONAL INSTITUTE OF IMMUNOLOGY, priority 2018, dated 2022)

Legend:
RAW264.7 macrophages = experiment: qPCR of Cd74, Cd36 in serum starved macrophages; assay type: cell-based, murine; conditions: unstimulated RAW264.7 macrophages, with respect to basal
macrophages = experiment: Uptake of fluorescent CD36 ligands by macrophages (FACS); assay type: cell-based, murine; conditions: macrophages pre-treated half an hour, ligand 1 hour
Procedure: Briefly, 50 μl of 100 μM Abeta was pH adjusted to pH 9 with 5 microlitre of 1 M NaHCO3, followed by addition of 4 microlitre of the H2O solubilized reactive dye. Incubation at room temperature (˜22° C.) was performed for 15 min followed by immediate addition of 55 microlitre of the labeling reaction mixture onto a spin column packed with a 425 microlitre slurry of Biogel P-6 resin for removal of unincorporated dye. The resulting eluent (pH 7.4) was stored for up to 2 days at 4° C. or used immediately for cellular uptake experiments. Both ligands were exposed after pre-treatment of cells with A-O complex for half an hour. The ligands were exposed to cell cultures for 1 hour after which cells were either quenched with trypan blue (0.2%) or given acid wash.

[1] = system: iNOS (inducible nitric oxide synthase); experiment: iNOS Western blot and Griess nitrite assay in ConA activated macrophages; assay type: cell-based, murine; conditions: ConA induced
Procedure: To determine the anti-inflammatory potential of A-O complex, protein level of iNOS (inducible nitric oxide synthase) in cell lysates and nitrite level in cell culture supernatants were evaluated by Western blot and Griess assay respectively. iNOS antibody used was #2982 from Cell Signaling Technology. For determination of nitrite cell culture media and Griess reagent (5% phosphoric acid containing 0.1% NEDD, 1% sulfanilamide) were mixed and incubated in dark for 10 min at room temperature. The absorbance of the violet colored product and blank (cell culture media) was measured at 540 nm. The concentration of nitrite in the sample was determined from a sodium nitrite (NaNO2) standard curve.

[2] = system: co-culture of osteoblast (MC3T3-E1) and osteoclast (from RAW264.7); experiment: Osteoblast-osteoclast co-culture, mRNA by Real Time PCR; assay type: cell-based, mouse; conditions: 24 hours of incubation, vs basal
Procedure: Effect of A-O complex on bone cells: To determine whether A-O complex modulated bone cells, A-O complex was added to a co-culture system of osteoblast and osteoclast. MC3T3-E1 sub-clone 4 (pre-osteoblast cell line derived from new born mouse calvaria purchased from American Type Culture Collection) were cultured in α-MEM (Invitrogen, USA) supplemented with 10% fetal bovine serum and 1% anti-anti (Invitrogen, USA). Osteoblasts within the 4th and 10th passages were used for this study. For cell culture experiments 2×10^6 cells were seeded in 60 mm Petri plates. To initiate differentiation, cells were treated with 10 mM β-glycerophosphate and 50 μg/ml ascorbic acid. Murine RAW264.7 (macrophage) cells were used for generating osteoclasts. The cells were maintained in RPMI 1640 media supplemented with glutamine (2 mM) and FBS (10%). No trypsination was performed and subculture was done using a cell scraper after cultures reached 65-70% confluency. For generation of osteoclasts from RAW264.7 cells, cells of density 12000 cells per cm^2 were stimulated with 25 ng per ml of RANKL (directly with seeding) for 72-96 hours after which large multinucleated cells are seen and confirmed using TRAP5b assay. […] Thereafter the co-culture was exposed to A-O complex and the mRNA levels of osteocalcin and IGF-1 were analyzed by Real Time PCR.

A-O complex: peptide complex of 100 μM Abeta1-42 (SEQ ID NO: 1) and 3 ng Glu-OC (SEQ ID NO: 2), incubated at 37° C. for 4 hours
increase in mRNA level of Cd36 (RAW264.7 macrophages): 8 fold
increase in mRNA level of Cd74 (MHC-II) (RAW264.7 macrophages): 3 fold
uptake of mutant Abeta42 (mutant Aβ) (macrophages): facilitates the uptake
uptake of oxidized-lipoprotein (oxLDL) (macrophages): facilitates the uptake
iNOS protein expression ([1]; macrophage cell lysates, Western blot): reduces the iNOS expression
nitrite level in cell culture supernatants ([1]; macrophage cultures, Griess assay): reduction in the ConA induced nitrite levels
mRNA transcripts of IGF-1 [2]: significantly higher
mRNA transcripts of osteocalcin [2]: significantly higher
